Key:
[1] = biological target: T1, recombinant cGAS (aa147-522) (Homo sapiens, UniProt Q8N884); test: In vitro assay for inhibition of cGAS activity (ATP consumption, Kinase Glo); format: biochemical; details: 37° C. 20 minutes, read-out: Activity (Inhibition of cGAS enzyme activity in vitro, IC50)
T1 construct: recombinant cGAS (aa147-522); His6-SUMO (N, cleaved yes); made in house; host or cells: E. coli BL21/pLys
Method in brief: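 Human cGAS (aa147-522) at 1.5 ng/μL incubated with serially diluted compound at 37° C for 20 min; remaining ATP read by Kinase Glo luminescence. IC50 from percent ATP consumption plotted against log compound concentration.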

[2] = test system: cGAS activity in THP1 cells; test: Cellular assay: ISRE-Gaussia luciferase reporter THP1 cells transfected with ISD (Interferon Stimulatory DNA); format: cell-based; details: Homo sapiens, THP-1; ISRE-Gaussia luciferase reporter THP1 cells transfected with 2 μg/mL ISD, 16 hours; read-out: THP1-ISD (Inhibition of cGAS activity in THP1 cells, IC50)
Description: (§1) A reporter THP1 cell line harboring a gene encoding Gaussia Luciferase under the control of 5 tandem repeats of interferon-stimulated response elements (ISRE) was used to test inhibition of cGAS activity by synthetic compounds in human cells. These cells were plated on 96-well plates at 0.3×10^6/well and incubated with various concentrations of compounds or DMSO for 5 min, followed by transfection of 2 μg/mL of ISD (Interferon Stimulatory DNA, a 45 bp DNA oligo) or mock transfected using lipofectamine 2000 (Life Technology) method, according to manufacturer's instructions. 16 hours later, 15 μL of the media from each well is transferred to a new plate, 50 μL of solution containing 50 mM Hepes-NaOH, 50 mM NaCl, 10 mM EDTA, 1 μM of coeleanterazine was added to each well and luminescence was measured immediately. Fold increase in luminescence compared to mock transfection is plotted against concentrations of each compound, and IC50 is calculated using Graphpad. To evaluate the specificity of a compound, the same procedure was performed except that cells were transfected with 2 μg/mL poly(I:C) or infected with Sendai Virus (SeV) at 50 Unit/mL, which are known to activate the RIG-I-MAVS pathway. A specific inhibitory compound should inhibit interferon induction by DNA but have minimal effect on poly(I:C) or Sendai virus induced interferon reporter gene expression.

RIG-I-MAVS pathway = test: Specificity assay: ISRE reporter THP1 cells infected with Sendai Virus (SeV); format: cell-based; details: Homo sapiens, THP-1; ISRE-Gaussia luciferase reporter THP1 cells infected with Sendai Virus (SeV) at 50 Unit/mL
Description: as §1

T1 sequence (Q8N884 147-522): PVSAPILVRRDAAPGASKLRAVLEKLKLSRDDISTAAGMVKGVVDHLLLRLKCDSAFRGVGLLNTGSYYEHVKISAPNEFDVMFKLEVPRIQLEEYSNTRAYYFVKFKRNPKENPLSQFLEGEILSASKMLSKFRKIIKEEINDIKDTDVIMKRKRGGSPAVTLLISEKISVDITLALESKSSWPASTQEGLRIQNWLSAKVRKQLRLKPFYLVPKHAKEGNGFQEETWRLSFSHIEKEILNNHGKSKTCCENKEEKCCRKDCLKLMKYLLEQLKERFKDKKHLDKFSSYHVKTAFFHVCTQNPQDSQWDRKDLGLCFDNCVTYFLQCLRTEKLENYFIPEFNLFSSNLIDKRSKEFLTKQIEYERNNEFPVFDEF

Compound | IC50 [1] [nM] | IC50 [2] [nM] | IC50 (RIG-I-MAVS pathway) [nM]
Cc1nc(N)ncc1COc1cc(/C=C2\SC(=O)N(C)C2=O)c(Br)c(F)c1O [Ex108] | ≤ 500 | ≤ 2500 | ≥ 10000
COc1cc(/C=C2\SC(=O)N(C)C2=O)c(Br)cc1O [Ex28] | ≤ 500 | ≤ 2500 | ≥ 10000
C[S+]([O-])c1ncc(COc2cc(/C=C3\Sc4ncccc4C3=O)c(Br)cc2O)cn1 (stereo not drawn) [Ex216] | ≤ 500 | ≤ 2500 | 2500 to 10000
CN1C(=O)S/C(=C\c2cc3c(-c4cnc(N)nc4)c[nH]c3c(F)c2Br)C1=O [ExB40] | ≤ 500 | 2500 to 10000 | ≥ 10000
CN1C(=O)S/C(=C\c2cc(Oc3ccc(N)nc3)c(O)cc2Br)C1=O [Ex234] | ≥ 10000 | 2500 to 10000 | ≥ 10000
CN1C(=O)S/C(=C\c2cc(OCc3cnc(NCc4ccncc4)nc3)c(O)cc2Br)C1=O [Ex157] | ≤ 500 | 2500 to 10000 | ≥ 10000
CN1C(=O)S/C(=C\c2cc(OCc3cnc[nH]3)c(O)cc2Br)C1=O [Ex137] | 500 to 10000 | 2500 to 10000 | ≥ 10000
O=C1/C(=C/c2cc(OCc3cncnc3)c(O)cc2Br)Sc2ncccc21 [Ex193] | ≤ 500 | 2500 to 10000 | ≥ 10000
CNc1ncc(COc2cc(/C=C3\Sc4ncccc4C3=O)c(Br)cc2O)cn1 [Ex195] | ≤ 500 | 2500 to 10000 | ≥ 10000
CN1C(=O)S/C(=C\c2cc(OCc3cnc(N4CCNCC4)nc3)c(O)cc2Br)C1=O [Ex165] | ≤ 500 | 2500 to 10000 | ≥ 10000
CN1C(=O)S/C(=C\c2cc(OCC3CCCCC3)c(O)cc2Br)C1=O [Ex86] | 500 to 10000 | 2500 to 10000 | 2500 to 10000
CN1C(=O)S/C(=C\c2cc(OCc3ccc(N)nc3)c(O)cc2Br)C1=O [Ex131] | 500 to 10000 | 2500 to 10000 | 2500 to 10000
COc1cc(/C=C2\SC(=O)N(C)C2=O)c(I)cc1O [Ex65] | ≤ 500 | 2500 to 10000 | ≥ 10000
CN1C(=O)S/C(=C\c2cc(OCc3cnc(N)nc3)c(Oc3cnc(N)s3)cc2Br)C1=O [Ex211] | 500 to 10000 | 2500 to 10000 | ≥ 10000
CN1C(=O)S/C(=C\c2cc(OCc3cnc(NCc4cccnc4)nc3)c(O)cc2Br)C1=O [Ex156] | ≤ 500 | 2500 to 10000 | ≥ 10000
O=C1/C(=C/c2cc(OCc3cnc(NCc4ccccn4)nc3)c(O)c(F)c2Br)Sc2ncccc21 [ExA2] | ≤ 500 | ≥ 10000 | ≥ 10000

Compound | IC50 [1] [nM] | IC50 [2] [nM] | IC50 (RIG-I-MAVS pathway) [nM]
CCC(Oc1cc(/C=C2\SC(=O)N(C)C2=O)c(Br)c(F)c1O)c1cnc(N)nc1 (stereo not drawn) [ExB44] | ≤ 500 | 2500 to 10000 | ≥ 10000
CN1C(=O)S/C(=C\c2cc(OC(F)(F)F)c(O)cc2Br)C1=O [Ex57] | 500 to 10000 | ≤ 2500 | 2500 to 10000
CC(C)C(=O)N1CCC(COc2cc(/C=C3\SC(=O)N(C)C3=O)c(Br)cc2O)CC1 [Ex87] | 500 to 10000 | 2500 to 10000 | ≥ 10000
Nc1ncc(COc2cc(/C=C3\Sc4ncccc4C3=O)c(Br)cc2O)cn1 [Ex194] | ≤ 500 | ≤ 2500 | ≥ 10000
Nc1ncc(COc2cc(/C=C3\Sc4ncccc4C3=O)c(Br)c(F)c2O)cn1 [Ex123] | ≤ 500 | ≤ 2500 | ≥ 10000
CN1C(=O)S/C(=C\c2cc(OCc3ccnc4[nH]cnc34)c(O)cc2Br)C1=O [Ex68] | ≤ 500 | ≤ 2500 | ≥ 10000
CN1C(=O)S/C(=C\c2cc(OCCc3cnc(N)nc3)c(O)c(F)c2Br)C1=O [ExB3] | ≤ 500 | ≤ 2500 | ≥ 10000
CN1C(=O)S/C(=C\c2cc(OCc3cnc(NCc4ccccn4)nc3)c(O)cc2Br)C1=O [Ex155] | ≤ 500 | 2500 to 10000 | ≥ 10000
COc1cc(/C=C2\Sc3ncccc3C2=O)c(Br)c(F)c1O [Ex75] | ≤ 500 | 2500 to 10000 | ≥ 10000
CN1C(=O)S/C(=C\c2cc(OCc3cnc([S+](C)[O-])nc3)c(O)cc2Br)C1=O (stereo not drawn) [Ex213] | ≤ 500 | 2500 to 10000 | ≥ 10000
CN1C(=O)S/C(=C\c2cc(OCc3cnc(Cl)nc3)c(O)cc2Br)C1=O [Ex93] | ≤ 500 | 2500 to 10000 | ≥ 10000
CN1C(=O)S/C(=C\c2cc(OCc3cncnc3N)c(O)cc2Br)C1=O [Ex141] | ≤ 500 | ≤ 2500 | ≥ 10000
CN1C(=O)S/C(=C\c2cc(OCc3cn[nH]c3)c(O)cc2Br)C1=O [Ex92] | ≤ 500 | ≤ 2500 | ≥ 10000
CNc1ncc(COc2cc(/C=C3\Sc4ncccc4C3=O)c(Br)c(F)c2O)cn1 [ExA1] | ≤ 500 | 2500 to 10000 | ≥ 10000
O=C1/C(=C/c2cc(OCc3cnc(NCCO)nc3)c(O)cc2Br)Sc2ncccc21 [Ex196] | ≤ 500 | ≤ 2500 | ≥ 10000
CN1C(=O)S/C(=C\c2cc(OCc3cnc(NN)nc3)c(O)cc2Br)C1=O [Ex184] | ≤ 500 | ≤ 2500 | ≥ 10000
